From ChEMBL document CHEMBL1135513 (J Med Chem, 2002) come the findings set out here.

The target in test [1] is T1, GABA-A receptor; alpha-1/beta-2/gamma-2 (Homo sapiens, UniProt P14867+P18507+P47870).
T1 sequence (P14867 whole entry): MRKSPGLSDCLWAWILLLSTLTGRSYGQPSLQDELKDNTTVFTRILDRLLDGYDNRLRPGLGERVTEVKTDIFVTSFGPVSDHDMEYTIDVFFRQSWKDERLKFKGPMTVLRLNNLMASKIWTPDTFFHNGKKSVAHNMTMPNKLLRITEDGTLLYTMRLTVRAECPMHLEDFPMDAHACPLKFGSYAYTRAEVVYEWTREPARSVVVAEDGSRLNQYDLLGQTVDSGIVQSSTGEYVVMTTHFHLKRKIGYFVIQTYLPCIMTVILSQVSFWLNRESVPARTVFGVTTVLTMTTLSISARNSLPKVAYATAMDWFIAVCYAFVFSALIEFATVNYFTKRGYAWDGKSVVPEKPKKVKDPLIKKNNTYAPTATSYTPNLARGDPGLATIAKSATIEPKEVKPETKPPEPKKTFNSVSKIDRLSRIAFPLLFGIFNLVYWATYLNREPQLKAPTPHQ
T1 sequence (P47870 whole entry): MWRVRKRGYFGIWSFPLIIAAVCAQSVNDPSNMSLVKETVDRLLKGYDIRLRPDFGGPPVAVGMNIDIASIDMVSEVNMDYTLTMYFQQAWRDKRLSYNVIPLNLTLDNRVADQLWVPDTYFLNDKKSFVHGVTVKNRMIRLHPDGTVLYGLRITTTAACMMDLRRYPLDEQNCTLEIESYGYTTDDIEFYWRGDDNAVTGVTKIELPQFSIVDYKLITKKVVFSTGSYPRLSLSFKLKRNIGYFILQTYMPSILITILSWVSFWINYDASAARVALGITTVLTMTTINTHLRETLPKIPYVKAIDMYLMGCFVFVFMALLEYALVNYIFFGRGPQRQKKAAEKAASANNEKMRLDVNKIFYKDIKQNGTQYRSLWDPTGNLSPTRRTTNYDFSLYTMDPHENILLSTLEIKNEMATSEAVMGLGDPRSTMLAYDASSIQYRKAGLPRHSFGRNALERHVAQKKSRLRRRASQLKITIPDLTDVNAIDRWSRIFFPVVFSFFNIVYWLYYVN
T1 sequence (P18507 whole entry): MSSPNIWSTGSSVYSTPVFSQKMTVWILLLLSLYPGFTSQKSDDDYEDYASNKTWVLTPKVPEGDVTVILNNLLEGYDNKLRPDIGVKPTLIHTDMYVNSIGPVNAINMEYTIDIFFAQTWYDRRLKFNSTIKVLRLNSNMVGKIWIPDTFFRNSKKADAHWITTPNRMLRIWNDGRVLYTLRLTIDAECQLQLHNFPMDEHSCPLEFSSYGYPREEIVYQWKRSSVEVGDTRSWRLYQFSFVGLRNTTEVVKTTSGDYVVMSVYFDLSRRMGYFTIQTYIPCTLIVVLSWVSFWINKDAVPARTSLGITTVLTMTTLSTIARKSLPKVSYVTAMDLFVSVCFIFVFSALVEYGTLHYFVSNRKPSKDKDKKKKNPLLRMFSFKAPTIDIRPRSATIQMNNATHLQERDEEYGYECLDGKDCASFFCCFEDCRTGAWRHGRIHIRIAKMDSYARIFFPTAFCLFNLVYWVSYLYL
Put plainly: Potentiation of GABA responses at human Gamma-aminobutyric acid A receptor alpha-1-beta-2-gamma-2. In kind it is protein-complex assay.

The test system of test [2] is Xenopus laevis. Put plainly: Loss of righting reflex (LORR) in tadpoles was determined for anesthetic activity. In kind it is functional, organism-based, frog. To be noted: Tadpole.
Test [3] concerns the target T1, GABA-A receptor; alpha-1/beta-2/gamma-2. Put plainly: Direct activation of human Gamma-aminobutyric acid A receptor alpha-1-beta-2-gamma-2. Format: protein-complex assay.
Test [4] relates to Xenopus laevis. Put plainly: Loss of righting reflex (LORR) in Xenopus laevis tadpoles was determined for anesthetic activity. In kind it is functional, organism-based, frog. Particulars: Tadpole.

The term EC50 denotes the concentration that produces a half-maximal response.

For `Oc1c(C2CCCCC2)cccc1C1CCCCC1`, the EC50 in test [1] was 100000 µM.

With `CC(C)Cc1cccc(CC(C)C)c1O`, the EC50 in the test on Xenopus laevis [2] was 0.398 µM; in test [3], 20 µM; in test [1], 2.51 µM.

On to `CCc1cccc(CC)c1N=C=S`, for which the EC50 in the test with Xenopus laevis [2] was 158 µM; in test [3], 316 µM; in test [1], 15.8 µM.

As for `Oc1ccccc1C1CCCC1`, the EC50 in test [1] is 100000 µM.

In the case of `CCc1cccc(CC)c1N=C=O`, the results for the EC50 (in the test with Xenopus laevis [2]; in test [3]; in test [1]) were 158 µM, 251 µM and 25.1 µM, respectively.

Take `CC(C)c1cc(O)c(O)c(C(C)C)c1`: the EC50 is 50.1 µM in the test on Xenopus laevis [2], 200 µM in test [3] and 39.8 µM in test [1].

As to `CCc1cccc(CC)c1Br`, the 50% effective concentration (EC50) with Xenopus laevis [2] was 158 µM; in test [3], 126 µM; in test [1], 20 µM.

As for `Cc1cccc(C(C)(C)C)c1O`, the EC50 was 31.6 µM in the test with Xenopus laevis [2], 20 µM in test [3] and 0.501 µM in test [1].

On to `CCc1cccc(CC)c1O`, for which the EC50 with Xenopus laevis [2] was 20 µM; in test [3] it was 126 µM; in test [1], 12.6 µM.

On to `CC(C)c1ccccc1O`, for which the 50% effective concentration (EC50) with Xenopus laevis [2] was 126 µM; in test [3], 158 µM; in test [1], 39.8 µM.

For `Cc1cccc(C)c1O`, the 50% effective concentration (EC50) is 63.1 µM with Xenopus laevis [2], 200 µM in test [3] and 126 µM in test [1].

Regarding `CC(C)(C)c1cc(O)cc(C(C)(C)C)c1`, the half-maximal effective concentration (EC50) was 100 µM with Xenopus laevis [2], 501 µM in test [3] and 100 µM in test [1].

As to `CC(C)c1cc(I)cc(C(C)C)c1O`, the EC50 with Xenopus laevis [4] was 2.51 µM; in test [3] it was 31.6 µM; in test [1], 10 µM.

Take `Oc1ccccc1` [PHENOL]: the EC50 was 1580 µM with Xenopus laevis [2] and 1000 µM in test [1].

Take `CC(C)c1cccc(C(C)C)c1O` [PROPOFOL]: the EC50 with Xenopus laevis [2] is 2 µM; in test [3], 10 µM; in test [1], 2 µM.

On to `COc1cccc(OC)c1O` [SYRINGOL], for which, in test [1], the concentration for a half-maximal effect (EC50) is 100000 µM.
